Assays:
[1] = tested on: TrxR1 purified from CHO cell cultures; assay: mAb B reduction by pooled CHO fractions with NADPH and Trx1; assay type: biochemical, Chinese Hamster; conditions: 3 μM Cu^2+ or 100 μM ATG, overnight room temperature
Method: Purified mAb B was spiked into several solutions containing different combinations of the pooled fractions (PF), recombinant Trx1, GSSG, NADPH, ATG, and Cu^2+. The solutions were incubated at room temperature overnight and the amount of intact antibody remaining was determined by capillary electrophoresis according to the protocol described above. In the first set of samples, purified mAb B was spiked into the pooled fractions with, and without, NADPH.
The third set of solutions contained the pooled enzymes, NADPH, Trx1, and either no inhibitor, 3 μM Cu^2+, or 100 μM ATG. […] In the final sample as a control, mAb B was spiked into a solution containing NADPH, Trx1, and GSSG.

[2] = molecular target: T1, recombinant mammalian TrxR1/Trx1 (Rattus norvegicus, UniProt O89049); assay: Reduction of purified mAb B by recombinant TrxR1/Trx1, capillary electrophoresis; assay type: biochemical, human (Trx1); conditions: 0.1 mM ATG, purified mAb B, overnight, oxygen-free
T1 construct: purchased Cayman Chemical (TrxR1); Abcam (Trx1)
T1 sequence (O89049 1-499): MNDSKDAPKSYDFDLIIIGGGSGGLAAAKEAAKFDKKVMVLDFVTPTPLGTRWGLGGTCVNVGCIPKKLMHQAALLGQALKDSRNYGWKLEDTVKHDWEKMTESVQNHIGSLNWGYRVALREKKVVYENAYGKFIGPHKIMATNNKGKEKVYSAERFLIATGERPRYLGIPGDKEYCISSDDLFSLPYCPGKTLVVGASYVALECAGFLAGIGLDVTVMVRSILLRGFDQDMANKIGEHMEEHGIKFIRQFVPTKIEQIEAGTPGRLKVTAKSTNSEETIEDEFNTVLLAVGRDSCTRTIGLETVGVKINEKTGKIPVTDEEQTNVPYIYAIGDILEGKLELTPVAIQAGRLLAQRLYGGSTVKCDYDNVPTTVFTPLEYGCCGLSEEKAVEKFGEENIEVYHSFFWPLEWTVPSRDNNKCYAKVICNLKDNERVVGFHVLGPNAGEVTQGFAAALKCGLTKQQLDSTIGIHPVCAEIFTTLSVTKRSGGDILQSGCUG
Method: Antibody reduction in cell culture supernatant samples was measured by detecting the presence of reduced species via capillary electrophoresis using standard procedures on a 2100 Bioanalyzer system (Agilent Technologies, Santa Clara, Calif.). Samples were diluted 1-6 fold depending on titer and analyzed under non-reducing conditions following 2100 Bioanalyzer standard protocols. Supernatant samples from 3 L bioreactors were stored frozen until all samples had been acquired and were ready for analysis. Samples were thawed on ice and analyzed immediately to evaluate the amount of reduced antibody in the reactor on each day of the run.
The role of each enzymatic system in antibody reduction was evaluated by determining the conditions under which these reductase systems cause antibody reduction. Using purified recombinant mammalian reductases, the thioredoxin system was evaluated by spiking purified mAb B into five solutions containing: 1) no enzymes, 2) 1 μM TrxR1, 3) 0.1 μM TrxR1, 4) […], and 5) 0.1 μM TrxR1+2.5 μM Trx1. All samples contained 0.4 mM NADPH and were stored at room temperature overnight. Digital gel-like images were obtained from microchip-based capillary electrophoresis analysis.
To confirm that the activity from a particular reductase system can translate into reduced antibody, a second method was developed to determine the impact of each reductase system on antibody reduction. The principle of the reduction assay is similar to the reductase activity assay described above. The percent of protein reduction without an inhibitor was compared to the percent of protein reduction in the presence of specific inhibitors for GR or TrxR1. In this assay, purified mAb B was spiked into solutions containing recombinant mammalian TrxR1/Trx1 or recombinant mammalian GR/GSSG and stored in an oxygen-free environment overnight. The percent of reduced mAb B antibody was evaluated using capillary electrophoresis, as set forth above.

recombinant TrxR1/Trx1 = molecular target: T2, recombinant TrxR1/Trx1 (Rattus norvegicus, UniProt O89049); assay: DTNB reductase activity assay, recombinant TrxR1/Trx1; conditions: ATG concentrations higher than 0.1 μM
T2 sequence (O89049 1-499): T1 sequence (O89049 1-499)
Method: This assay allows determination of the total reductase activity in a culture sample, as well as determination of the individual contribution made by thioredoxin reductase and glutathione reductase to the total reductase activity of the sample. In this assay, culture samples (cells+media) from 3 L bioreactors were stored frozen until the end of the run, after which the samples were centrifuged to remove the cell pellet then the resulting supernatant was diluted 20-fold into 100 mM tris buffer, pH 7.4, containing 0.4 mM NADPH, 0.15 mM oxidized glutathione, and 3 mM DTNB with the indicated concentration of specific reductase inhibitor. Addition of the enzyme specific inhibitors to the samples allowed the total reductase activity to be determined as well as the individual activity from the thioredoxin and glutathione systems. Reductase activity was monitored by spectroscopic measurement of the increase in absorbance at a wavelength of 412 nm. […] The detected increase in absorbance at this wavelength is caused by the reduction of DTNB (Arnér, ESJ, Biochim. Biophys. Acta—Gen. Subj., 1790:495-526, 2009).
Briefly, culture samples were thawed on ice. […] The absorbance at a wavelength of 412 nm was determined every 30 seconds, for 20 minutes.
Activity of the reductases was calculated as follows. The change in absorbance per minute (Δ412) for each well was determined. […]

SMILES: OC[C@H]1O[C@H]([S-])[C@H](O)[C@@H](O)[C@@H]1O.[Au+] [ATG, aurothioglucose]
- antibody reduction in pooled enzymes, NADPH, Trx1 [1]: completely prevented reduction
- antibody reduction in sample containing TrxR1/Trx1 [2]: complete inhibition of antibody reduction
- TrxR1/Trx1 reductase activity (recombinant TrxR1/Trx1): negligible

From patent US20190112357A1, “PREVENTION OF PROTEIN DISULFIDE BOND REDUCTION” (MedImmune, LLC, priority 2016, published 2019)
